Experimental data taken from US20240425524A1, “SPIROTRICYCLE RIPK1 INHIBITORS AND METHODS OF USES THEREOF” (Merck Sharp & Dohme LLC, priority 2021, published 2024).

Target: RIPK1 (Homo sapiens (Human), UniProt Q13546)
Assay: RIPK1-ADP-Glo Enzymatic Assay
Format: biochemical
Settings: recombinant GST-RIPK1 kinase domain (residues 1-327), 25 nM, ten-point titration, 30 minutes pre-incubation
How it was run: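 GST-RIPK1 kinase domain (residues 1-327, Sf21-expressed; 25 nM final) was pre-incubated 30 min at ambient temperature with compound (10-point 1:3 series from 100000 nM, 1% DMSO) in HEPES pH 7.3 buffer with 20 mM MgCl2. The reaction was started with 900 μM ATP (addition solution) and 3 μM dephosphorylated MBP and ran 150 min. Read-out was ADP-Glo luminescence, with EC50 from a four-parameter fit.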

Sequence of RIPK1 (Q13546 1-327): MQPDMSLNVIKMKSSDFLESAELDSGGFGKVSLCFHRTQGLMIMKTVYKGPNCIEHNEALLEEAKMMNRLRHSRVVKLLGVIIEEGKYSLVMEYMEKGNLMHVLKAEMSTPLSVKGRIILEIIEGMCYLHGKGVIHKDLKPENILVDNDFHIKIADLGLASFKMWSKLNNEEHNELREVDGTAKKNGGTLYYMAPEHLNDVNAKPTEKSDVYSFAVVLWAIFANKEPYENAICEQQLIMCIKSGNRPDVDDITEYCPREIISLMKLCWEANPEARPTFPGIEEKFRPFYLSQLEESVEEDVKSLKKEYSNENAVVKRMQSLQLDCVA

EC50 | Compound
118 nM | Cc1ccn(-c2ccnc(N3CCC4(CC3)CN3CC[C@@H](c5cc(F)cc(F)c5)N3C4=O)c2)n1 [Example 2.5, (S)-7′-(3,5-difluorophenyl)-1-(4-(3-methyl-1H-pyrazol-1-yl)pyridin-2-yl)dihydro-1′H,3′H,5′H-spiro[piperidine-4,2′-pyrazolo[1,2-a]pyrazol]-1′-one]
145 nM | O=C1N2[C@H](c3cc(F)cc(F)c3)CCN2CC12CCN(c1noc3ccccc13)CC2 [Example 2.6, (S)-1-(benzo[d]isoxazol-3-yl)-7′-(3,5-difluorophenyl)dihydro-1′H,3′H,5′H-spiro[piperidine-4,2′-pyrazolo[1,2-a]pyrazol]-1′-one]
24 nM | O=C1N2[C@H](c3cc(F)cc(F)c3)CCN2CC12CCN(c1ccnc3ccccc13)CC2 [Example 2.7, (S)-7′-(3,5-difluorophenyl)-1-(quinolin-4-yl)dihydro-1′H,3′H,5′H-spiro[piperidine-4,2′-pyrazolo[1,2-a]pyrazol]-1′-one]
24 nM | Cc1ccc2c(N3CCC4(CC3)CN3CC[C@@H](c5cc(F)cc(F)c5)N3C4=O)ccnc2c1 [Example 2.8, (S)-7′-(3,5-difluorophenyl)-1-(7-methylquinolin-4-yl)dihydro-l′H,3′H,5′H-spiro[piperidine-4,2′-pyrazolo[1,2-a]pyrazol]-1′-one]
792 nM | O=C1N2[C@H](c3cc(F)cc(F)c3)CCN2CC12CCN(c1ncc(F)cc1C(F)F)CC2 [Example 2.9, (S)-1-(3-(difluoromethyl)-5-fluoropyridin-2-y1)-7′-(3,5-difluorophenyl)dihydro-l′H,3′H,5′H-spiro[piperidine-4,2′-pyrazolo[1,2-a]pyrazol]-1′-one]
33 nM | O=C1N2[C@H](c3cc(F)cc(F)c3)CCN2CC12CCN(c1ccnc3ccnn13)CC2 [Example 2.10, (S)-7′-(3,5-difluorophenyl)-1-(pyrazolo[1,5-a]pyrimidin-7-yl)dihydro-1′H,3′H,5′H-spiro[piperidine-4,2′-pyrazolo[1,2-a]pyrazol]-1′-one]
34 nM | O=C1N2[C@H](c3cc(F)cc(F)c3)CCN2CC12CCN(c1nccn3nccc13)CC2 [Example 2.11, (S)-7′-(3,5-difluorophenyl)-1-(pyrazolo[1,5-a]pyrazin-4-y1)dihydro-l′H,3′H,5′H-spiro[piperidine-4,2′-pyrazolo[1,2-a]pyrazol]-1′-one]
6 nM | O=C1N2[C@H](c3cc(F)cc(F)c3)CCN2CC12CCN(c1cccc(-n3nccc3C(F)(F)F)n1)CC2 [Example 2.12, (S)-7′-(3,5-difluorophenyl)-1-(6-(5-(trifluoromethyl)-1H-pyrazol-1-y1)pyridin-2-yl)dihydro-l′H,3′H,5′H-spiro[piperidine-4,2′-pyrazolo[1,2-a]pyrazol]-1′-one]
17 nM | Cc1ccn(-c2cccc(N3CCC4(CC3)CN3CC[C@@H](c5cc(F)cc(F)c5)N3C4=O)n2)n1 [Example 2.13, (S)-7′-(3,5-difluorophenyl)-1-(6-(3-methyl-1H-pyrazol-1-yl)pyridin-2-yl)dihydro-1′H,3′H,5′H-spiro[piperidine-4,2′-pyrazolo[1,2-a]pyrazol]-1′-one]
80 nM | Cc1cnn(-c2cnc(N3CCC4(CC3)CN3CC[C@@H](c5cc(F)cc(F)c5)N3C4=O)cn2)c1 [Example 2.15, (S)-7′-(3,5-difluorophenyl)-1-(5-(4-methyl-1H-pyrazol-1-yl)pyrazin-2-yl)dihydro-l′H,3′H,5′H-spiro[piperidine-4,2′-pyrazolo[1,2-a]pyrazol]-1′-one]
25 nM | O=C1N2[C@H](c3cc(F)cc(F)c3)CCN2CC12CCN(c1cnc(-c3ccccc3Cl)cn1)CC2 [Example 2.16, (S)-1-(5-(2-chlorophenyl)pyrazin-2-y1)-7′-(3,5-difluorophenyl)dihydro-1′H,3′H,5′H-spiro[piperidine-4,2′-pyrazolo[1,2-a]pyrazol]-1′-one]
96 nM | O=C1N2[C@H](c3cc(F)cc(F)c3)CCN2CC12CCN(c1cnc(-c3cccc(Cl)c3)cn1)CC2 [Example 2.17, (S)-1-(5-(3-chlorophenyl)pyrazin-2-yl)-7′-(3,5-difluorophenyl)dihydro-1′H,3′H,5′H-spiro[piperidine-4,2′-pyrazolo[1,2-a]pyrazol]-1′-one]
152 nM | O=C1N2[C@H](c3cc(F)cc(F)c3)CCN2CC12CCN(c1cnc(-c3ccc(Cl)cc3)cn1)CC2 [Example 2.18, (S)-1-(5-(4-chlorophenyl)pyrazin-2-y1)-7′-(3,5-difluorophenyl)dihydro-1′H,3′H,5′H-spiro[piperidine-4,2′-pyrazolo[1,2-a]pyrazol]-1′-one]
27 nM | N#Cc1cnc(N2CCC3(CC2)CN2CC[C@@H](c4cc(F)cc(F)c4)N2C3=O)cn1 [Example 2.19, (S)-5-(7′-(3,5-difluorophenyl)-1′-oxodihydro-l′H,3′H,5′H-spiro[piperidine-4,2′-pyrazolo[1,2-a]pyrazol]-1-y1)pyrazine-2-carbonitrile]
30 nM | CSc1cnc(N2CCC3(CC2)CN2CC[C@@H](c4cc(F)cc(F)c4)N2C3=O)cn1 [Example 2.20, (S)-7′-(3,5-difluorophenyl)-1-(5-(methylthio)pyrazin-2-yl)dihydro-l′H,3′H,5′H-spiro[piperidine-4,2′-pyrazolo[1,2-a]pyrazol]-1′-one]
28 nM | O=C1N2[C@H](c3cc(F)cc(F)c3)CCN2CC12CCN(c1ccc(OC(F)F)cn1)CC2 [Example 2.21, (S)-1-(5-(difluoromethoxy)pyridin-2-y1)-7′-(3,5-difluorophenyl)dihydro-1′H,3′H,5′H-spiro[piperidine-4,2′-pyrazolo[1,2-a]pyrazol]-1′-one]
132 nM | O=C1N2[C@H](c3cc(F)cc(F)c3)CCN2CC12CCN(c1cc(-c3ccco3)ccn1)CC2 [Example 2.22, (S)-7′-(3,5-difluorophenyl)-1-(4-(furan-2-y1)pyridin-2-yl)dihydro-1′H,3′H,5′H-spiro[piperidine-4,2′-pyrazolo[1,2-a]pyrazol]-1′-one]
48 nM | Cc1cc(-c2cncs2)nc(N2CCC3(CC2)CN2CC[C@@H](c4cc(F)cc(F)c4)N2C3=O)c1 [Example 2.23, (S)-7′-(3,5-difluorophenyl)-1-(4-methyl-6-(thiazol-5-yl)pyridin-2-yl)dihydro-1′H,3′H,5′H-spiro[piperidine-4,2′-pyrazolo[1,2-a]pyrazol]-1′-one]
907 nM | CCCOc1ccnc(N2CCC3(CC2)CN2CC[C@@H](c4cc(F)cc(F)c4)N2C3=O)c1 [Example 2.24, (S)-7′-(3,5-difluorophenyl)-1-(4-propoxypyridin-2-yl)dihydro-l′H,3′H,5′H-spiro[piperidine-4,2′-pyrazolo[1,2-a]pyrazol]-1′-one]
50 nM | O=C1N2[C@H](c3cc(F)cc(F)c3)CCN2CC12CCN(c1cc(-n3ccnc3)ccn1)CC2 [Example 2.25, (S)-1-(4-(1H-imidazol-1-yl)pyridin-2-y1)-7′-(3,5-difluorophenyl)dihydro-1′H,3′H,5′H-spiro[piperidine-4,2′-pyrazolo[1,2-a]pyrazol]-1′-one]
98 nM | Cc1cnn(-c2ccnc(N3CCC4(CC3)CN3CC[C@@H](c5cc(F)cc(F)c5)N3C4=O)c2)c1 [Example 2.26, (S)-7′-(3,5-difluorophenyl)-1-(4-(4-methyl-1H-pyrazol-1-yl)pyridin-2-yl)dihydro-1′H,3′H,5′H-spiro[piperidine-4,2′-pyrazolo[1,2-a]pyrazol]-1′-one]
50 nM | O=C(c1cnccn1)N1CCC2(CC1)CN1CC[C@@H](c3cc(F)cc(F)c3)N1C2=O [Example 4.1, (S)-7′-(3,5-difluorophenyl)-1-(pyrazine-2-carbonyl) dihydro-1′H,3′H,5′H-spiro [piperidine-4,2′-pyrazolo[1,2-a]pyrazol]-1′-one]
434 nM | O=C(c1ncccn1)N1CCC2(CC1)CN1CC[C@@H](c3cc(F)cc(F)c3)N1C2=O [Example 4.2, (S)-7′-(3,5-difluorophenyl)-1-(pyrimidine-2-carbonyl)dihydro-1′H,3′H,5′H-spiro[piperidine-4,2′-pyrazolo[1,2-a]pyrazol]-l′-one]
38 nM | Cc1ccc(C(=O)N2CCC3(CC2)CN2CC[C@@H](c4cc(F)cc(F)c4)N2C3=O)cc1 [Example 4.3, (S)-7′-(3,5-difluorophenyl)-1-(4-methylbenzoyl)dihydro-1′H,3′H,5′H-spiro[piperidine-4,2′-pyrazolo[1,2-a]pyrazol]-l′-one]
209 nM | O=C(c1cccnc1)N1CCC2(CC1)CN1CC[C@@H](c3cc(F)cc(F)c3)N1C2=O [Example 4.4, (S)-7′-(3,5-difluorophenyl)-1-nicotinoyldihydro-1′H,3′H,5′H-spiro[piperidine-4,2′-pyrazolo[1,2-a]pyrazol]-l′-one]
414 nM | O=C(c1ccncc1)N1CCC2(CC1)CN1CC[C@@H](c3cc(F)cc(F)c3)N1C2=O [Example 4.5, (S)-7′-(3,5-difluorophenyl)-1-isonicotinoyldihydro-1′H,3′H,5′H-spiro[piperidine-4,2′-pyrazolo[1,2-a]pyrazol]-l′-one]

Compound | EC50
O=C1N2[C@H](c3cc(F)cc(F)c3)CCN2CC12CCN(c1ncnc3scnc13)CC2 [Example 3.1] | 24 nM
CCn1cnc2c(N3CCC4(CC3)CN3CC[C@@H](c5cc(F)cc(F)c5)N3C4=O)ncnc21 [Example 3.2, (S)-7′-(3,5-difluorophenyl)-1-(9-ethyl-9H-purin-6-yl)dihydro-l′H,3′H,5′H-spiro[piperidine-4,2′-pyrazolo[1,2-a]pyrazol]-1′-one] | 765 nM
O=C1N2[C@H](c3cc(F)cc(F)c3)CCN2CC12CCN(c1ncnc3scnc13)CC2 [Example 3.3, (S)-7′-(3,5-difluorophenyl)-1-(thiazolo[5,4-d]pyrimidin-7-yl)dihydro-1′H,3′H,5′H-spiro[piperidine-4,2′-pyrazolo[1,2-a]pyrazol]-1′-one] | 14 nM
